“Also recorded” adds a separate entry of the source.
How the values were obtained:
Type in all cases: biochemical, Trametes versicolor
T. versicolor laccase [1] = assay: Biocompatibility screening of AILs with laccase (ABTS oxidation assay); conditions: for inhibitory effect on laccase (comparison among the 3 ILs): varied concentration of laccase and ILs
Procedure: All solutions used were adjusted to pH 5.0 prior to beginning experiments. Appropriate concentrations of laccase and AILs were mixed and added to clear, flat bottom 96-well Costar Assay Plates (Corning Inc.; Kenneburk, Me.). ABTS was added for a final concentration of 2 mM. Sodium citrate buffer (1.0 M, pH 5.0) was added for a final well volume of 250 μL. ABTS oxidation was measured for 5 minutes at 40° C. Absorbance readings were taken every 30 seconds at a wavelength of 420 nm using a SpectraMax M2 plate reader from Molecular Devices (Sunnyvale, Calif., USA). Plates were shaken for 5 seconds prior to initial reading and 3 seconds before each reading to ensure homogeneous well solutions.

T. versicolor laccase [2] = assay: Lignin model compound (GGE) depolymerization by laccase in AILs, HPLC; conditions: 2% [C2C1Im][OAc] or 1% [Ch][Lys], 40° C., O2 30 psi, 2 hours
Procedure: Appropriate concentrations of AIL, ABTS, laccase, and GGE were mixed. Sodium citrate buffer (1.0 M, pH 5.0) was added for a final reaction volume of 1 mL. Reactions were carried out in a batch reactor at 40° C. Pure O2 was flowed through the reactor for 1 minute. The release valve of the reactor was closed, pure O2 was flowed in at a pressure of 30 psi, and the reaction was allowed to proceed for an additional 2 hours. Product profiles were analyzed by HPLC using the method as described previously (Deng, Zhang et al. 2015). Water and acetonitrile (8:2 v/v) was used as a mobile phase. Mobile phase was flowed at 0.5 mL min^−1 for 30 minutes through an Ultimate 3000 HPLC system (Dionex Corporation, Sunnyvale, Calif., USA) equipped with ultraviolet (UV) detector. Separation was achieved through use of a Zorbax Eclipse XDB-C18 column (5 μm particle size, 150×4.6 mm i.d., Agilent Technologies, Santa Clara, Calif., USA) at 25° C. Elution profile of column was measured by UV absorbance at 280 nm.

T. versicolor laccase [3] = assay: AIL inhibition: Michaelis-Menten and Lineweaver-Burke curves of laccase; conditions: from changes in Vmax and Km with AIL concentration; ABTS substrate, 0.30 μg laccase
Procedure: Michaelis-Menten curves were generated by mixing appropriate concentrations of AILs and ABTS with 0.30 μg laccase in 96-well plates. Sodium citrate buffer (1.0 M, pH 5.0) was added for a final well volume of 250 μL. ABTS oxidation was measured using the same method as the initial screening. Laccase activity (V) was measured as moles of ABTS oxidized per minute per gram of laccase (mol ABTS·min^−1·g^−1 lac.) and Km was measured in μmol ABTS. Activity was fit to the Michaelis-Menten curve, shown in equation 1. [formula] These curves were linearized using the Lineweaver-Burke method, resulting in equation 2. [formula] Equation 2 was used to solve for Km and Vmax of laccase in known concentrations of AILs.

Row | degradation of GGE by laccase in AIL (T. versicolor laccase [2]; with mediator ABTS) | degradation of GGE by laccase in AIL (T. versicolor laccase [2]; without ABTS, 10% [DEA][HSO4]) | type of inhibition of laccase (T. versicolor laccase [3]) | SMILES | loss of laccase activity (T. versicolor laccase [1]; 2% IL, ABTS assay) | inhibitory effect on laccase (comparison among the 3 ILs) (T. versicolor laccase [1]; ABTS assay, acetate) | loss of laccase activity (T. versicolor laccase [1]; 2% AIL, ABTS oxidation, pH 5.0, 40° C.) [%] | inhibitory effect on laccase (comparison among the 3 ILs) (T. versicolor laccase [1]; ABTS assay) | loss of laccase activity (T. versicolor laccase [1]; 10% IL, ABTS assay)
1 | able to break down GGE | not capable of breaking down GGE | mixed inhibition | CC(=O)[O-].CCn1cc[n+](C)c1 [[C2C1Im][OAc], 1-ethyl-3-methylimidazolium acetate] | significant loss of laccase activity | more inhibitory to laccase |  |  | 
2 | able to break down GGE | not capable of breaking down GGE | mixed inhibition | C[N+](C)(C)CCO.NCCCC[C@H](N)C(=O)[O-] [[Ch][Lys], cholinium lysinate] |  |  | > 50 | more inhibitory | 

Row | SMILES | degradation of GGE by laccase in AIL (T. versicolor laccase [2]; with mediator ABTS) | degradation of GGE by laccase in AIL (T. versicolor laccase [2]; without ABTS, 10% [DEA][HSO4]) | type of inhibition of laccase (T. versicolor laccase [3]) | loss of laccase activity (T. versicolor laccase [1]; 2% IL, ABTS assay) | inhibitory effect on laccase (comparison among the 3 ILs) (T. versicolor laccase [1]; ABTS assay, acetate) | loss of laccase activity (T. versicolor laccase [1]; 2% AIL, ABTS oxidation, pH 5.0, 40° C.) [%] | inhibitory effect on laccase (comparison among the 3 ILs) (T. versicolor laccase [1]; ABTS assay) | loss of laccase activity (T. versicolor laccase [1]; 10% IL, ABTS assay)
3 | CCNCC.O=S(=O)(O)O [[DEA][HSO4], diethyl ammonium hydrogen sulfate] |  | capable of degrading GGE | noncompetitive inhibition |  |  |  | most biocompatible; also recorded: did not impede the ability of laccase to oxidize ABTS | losing little of its activity; also recorded: negligible to modest loss of laccase activity
